Marks after values point to notes of the source that are not given here.
Key:
[1] = HbA1c in GAD65+ LADA patients, two year double-blind randomized study linagliptin versus glimepiride on metformin; format: in vivo, human; details: GAD+ patients
Method: (§1) β-Cell function in latent autoimmune diabetes in adults (LADA) treated with linagliptin versus glimepiride: exploratory results from a two year double-blind, randomized, controlled study:
(§2) It is compared the impact of treatment with the DPP4-inhibitor linagliptin (lina) 5 mg/d and the sulphonylurea glimepiride (glim) 1-4 mg/d on β-cell function in patients retrospectively identified with LADA who had insufficient glycaemic control despite metformin therapy in a two year study.
(§3) Patients were classified as LADA if one or more of the autoantibodies assessed (GAD65, ICA, IA-2A, IAA) were present at baseline or any on-treatment visit. GAD was assessed using RIA methodology (cut-off 0.05 [sensitivity 82%/specificity 98.89% in the Diabetes Autoantibody Standardization Program 2010]).
(§4) The study cohort comprised 1519 patients (16 countries), with assumed common T2D. The prevalence of LADA was 7.8% (n=118). GAD65 was the most prevalent autoantibody (6.5%) whereas ICA (0.3%), IA-2A (1.2%) and IAA (0.2%) were rare. Proportion of patients with 2 positive antibodies was 0.4%. Baseline characteristics in GAD65+LADA patients treated with lina (n=65) or glim (n=53) were fairly well balanced (respective age 59/63 yrs, BMI 30.3/31.7 kg/m2 and diabetes duration >5 years 62%/59%).
(§5) HbA1c reductions were of similar magnitude in the groups.

[2] = tested on: β-cell function; assay: Fasting C-peptide (β-cell function) in GAD65+ LADA patients, two year double-blind randomized study linagliptin versus glimepiride on metformin; format: in vivo, human; parameters: Follow-up C-peptide / ΔC-peptide / Baseline C-peptide: unit not given here; details: for Follow-up C-peptide / ΔC-peptide / Baseline C-peptide: fasting, GAD+ patients; for Follow-up C-peptide: 52 weeks; for Follow-up C-peptide / Baseline C-peptide: lina 5 mg/d, glim 1-4 mg/d, on metformin
Method: as §1, §2, §3, §4, §5

[3] = 2 h postprandial blood glucose excursions in patients with type 2 diabetes; format: in vivo, human; details: Day 1, doses ≧2.5 mg
[4] = Pharmacokinetics of BI 1356 after multiple oral doses once daily for 12 days in patients with type 2 diabetes; details: for feT,ss: steady state (Day 12); for feT,ss / fe0-24: gMean; for fe0-24: fraction excreted in urine
[5] = Safety and tolerability in people with type 2 diabetes
[6] = change from baseline at 28 weeks
[7] = change from baseline at 52 weeks
[8] = change from baseline at 104 weeks

Compound | ΔHbA1c [1, 6] | ΔHbA1c [1, 7] | ΔHbA1c [1, 8] | Baseline HbA1c ([1]; subset followed to 28 weeks) | Baseline HbA1c ([1]; subset followed to 52 weeks) | Baseline HbA1c ([1]; subset followed to 104 weeks) | Follow-up C-peptide [2] | ΔC-peptide [2, 6] | ΔC-peptide [2, 7] | ΔC-peptide [2, 8] | Baseline C-peptide ([2]; subset followed to 28 weeks) | Baseline C-peptide ([2]; subset followed to 52 weeks) | Baseline C-peptide ([2]; subset followed to 104 weeks) | other results
CC#CCn1c(N2CCC[C@@H](N)C2)nc2c1c(=O)n(Cc1nc(C)c3ccccc3n1)c(=O)n2C [BI 1356, 1-[(4-methyl-quinazolin-2-yl)methyl]-3-methyl-7-(2-butyn-1-yl)-8-(3-(R)-amino-piperidin-1-yl)-xanthine] | −0.25% | −0.49% | −0.41% | 7.62% | 7.50% | 7.40% | 978 | +96***## | +143***## | +202*** | 821 | 835 | 944 | preservation of C-peptide ([2]; GAD65+ patients, over a 2 yr trajectory, versus glim): preserved C-peptide significantly better than those treated with glim; decrease in 2 h postprandial blood glucose excursions [3]: 80%; feT,ss ([4]; 1 mg oral once daily): 3.34%; fe0-24 ([4]; 2.5 mg oral once daily): 0.139%; feT,ss ([4]; 2.5 mg oral once daily): 3.06%; fe0-24 ([4]; 5 mg oral once daily): 0.453%; feT,ss ([4]; 5 mg oral once daily): 6.27%; fe0-24 ([4]; 10 mg oral once daily): 0.919%; feT,ss ([4]; 10 mg oral once daily): 3.22%; mean accumulation ratio RA,AUC ([4]; doses above 1 mg): ≤ 1.4; form and route of excretion ([4]; human, in vivo): primarily excreted unchanged via the bile; excreted via the kidney ([4]; therapeutic oral dose levels): < 7 % of the administered oral dose; main route of excretion ([4]; therapeutic oral dose levels): mainly excreted via the liver; safety and tolerability [5]: placebo-like safety and tolerability
CCC1=C(C)CN(C(=O)NCCc2ccc(S(=O)(=O)NC(=O)N[C@H]3CC[C@H](C)CC3)cc2)C1=O [Glim, glimepiride, reference compound] | −0.75% | −0.52% | −0.49% | 7.75% | 7.46% | 7.40% | 1246 | −105 | −179 | −29 | 1326 | 1425 | 1374 | –

Reference: US20130317046A1, “USE OF A DPP-4 INHIBITOR IN AUTOIMMUNE DIABETES, PARTICULARLY LADA” (BOEHRINGER INGELHEIM INTERNATIONAL GMBH, priority 2012, published 2013)
